# “Also recorded” adds a separate entry of the source.
# How the values were obtained:
# TRIB3 [1] = experiment: Relative TRIB3 mRNA in control or FOXO1-silenced MCF7 cells after stressors; format: cell-based, human; details: FOXO1-shRNA MCF7 cells, in words
# TRIB3 [2] = experiment: TRIB3 expression after cytokines or stressors, MCF7 cells (WB); format: cell-based, human
# Protocol: (§1) Cycloheximide (CHX; Sigma Aldrich, R750107) was used as a protein synthesis inhibitor to assess the stability of the existing proteins. To assess protein stability, cells were treated with 20 μM CHX and the proteasome inhibitor MG132 (Sigma Aldrich, R750107) at 10 μM or the autophagy inhibitor BAF (Sigma Aldrich, B1793) at 200 nM for the indicated times. Protein expression was assessed via immunoblot analysis with cell lysates (20–60 μg) prepared in RIPA lysis buffer containing protease inhibitors (Roche) using anti-SOX2 (3529), anti-NANOG (4903), anti-OCT4 (2750), anti-KLF4 (4038), anti-c-Myc (13987), anti-FOXO1 (2880), anti-p-FOXO1 (9461), anti-AKT (4685), anti-p-AKT (4060), anti-β-ACTIN (4970), anti-Ubiquitin (3936), or anti-LaminA/C (4777) antibodies from CST; anti-TRIB3 antibody (ab75846) from Abcam; and anti-Trib3 antibody (PA5-15480) from Thermo Fisher Scientific[59]. All antibodies were used at 1:1000 dilution, with the exception of anti-β-Actin antibodies, which were used at 1:2000 dilution. The protein concentrations were determined by BCA Protein Assay Kits (Pierce). Proteins were separated by SDS-polyacrylamide gel electrophoresis (PAGE) and transferred to polyvinylidene difluoride membrane. […]
# (f, g) The expression of
# TRIB3 in MCF7 cells (top) or MDA-MB-231 cells (bottom) treated with various concentrations of IL6 for
# 8 hr (f) or 10 ng/ml IL-6 for different amounts of time (g) was detected by WB. (h) Silencing TRIB3
# decreased the tumor sphere formation ability of MCF7 cells with or without IL-6 stimulation. […]
# Data are shown as the mean ± SEM; P>0.05 was considered not significant (N.S.); *P<0.05, **P<0.01
# and ***P<0.001, compared with the con group in panels d-f. Source data are provided as a Source Data
# MCF7 cells [3] = experiment: Mammosphere (tumorsphere) formation, MCF7 cells; format: cell-based, human; details: one week of IL-6, serum-free spheroid suspension culture
# TRIB3 [4] = experiment: TRIB3 expression after IL-6, MDA-MB-231 cells (WB); format: cell-based; details: various IL-6 concentrations 8 hr, or 10 ng/ml IL-6 for different times
# Protocol: as §1, with “All antibodies were used at 1:1000 dilution, with the exception of anti-β-Actin antibodies, which were used at 1:2000 dilution.” left out, “(Pierce).” for “(Pierce). Proteins were separated by SDS-polyacrylamide gel electrophoresis (PAGE) and transferred to polyvinylidene difluoride membrane.”
# (GSE12790). Relative amounts of TRIB3 transcripts were measured using the 205805_s_at probe. […]
# levels of TRIB3 mRNA. Metastasis-free survival was determined by Kaplan–Meier analyses, and
# significant differences were determined by log-rank tests. […]
# 24 hr, glucose deprivation (DG) for 12 hr, and high glucose (HG) for 24 hr was detected by Western […]
# 8 hr (f) or 10 ng/ml IL-6 for different amounts of time (g) was detected by WB. […]
# MCF7 cells [5] = experiment: TRIB3/AKT/FOXO1/SOX2 axis after IL-6, CoCl2 or high glucose, MCF7 cells (WB); format: cell-based, human; details: MCF7 cells, IL-6 12 hr, high glucose 24 hr, WB
substance,measurement,setting,value
IL-6: cytokine interleukin (IL)-6,TRIB3 expression in FOXO1-silenced BCCs,TRIB3 [1],could enhance TRIB3 expression in FOXO1-silenced BCCs
same,TRIB3 expression,"TRIB3 [2]; cytokines 8 hr, high glucose 24 hr",enhanced TRIB3 expression in MCF7 cells
same,"TRIB3 expression, dose- and time-dependence","TRIB3 [2]; various IL-6 concentrations 8 hr, or 10 ng/ml IL-6 for different times",enhanced TRIB3 expression in MCF7 and MDA-MB-231 cells in dose-
same,tumorsphere-formation ability,MCF7 cells [3],increased the tumorsphere-formation ability
same,"TRIB3 expression, dose- and time-dependence",TRIB3 [4],enhanced TRIB3 expression in MCF7 and MDA-MB-231 cells in dose-
same,expressions of FOXO1 and SOX2,MCF7 cells [5]; CoCl2 24 hr,enhance; also recorded: enhanced expressions of FOXO1 and SOX2
same,activity of FOXO1 S256,MCF7 cells [5],reduced the activity of FOXO1^S256
